From patent publication US8962630B2, “Pyrrolopyrimidine compounds and their uses” (Novartis AG, priority 2008, dated 2015) come the findings set out here.

Read-outs that look alike come from different tables or passages of the source.

Common to all, as to format: biochemical
One assay concerns the target CDK4/cyclin D1 (Homo sapiens (Human), UniProt P11802). Nature of the assay: CDK4/Cyclin D1 enzymatic activity assay (Lance TR-FRET). The procedure, abridged: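 IC50 from a TR-FRET endpoint read of phospho-pRb(S780) after EDTA quench. Reaction: 60 min, room temperature, 3 μM ATP, 175 nM pRb152 substrate, 0.3 nM Sf21-derived His6-CDK4/GST-cyclin D1, pH 7.5 HEPES with MgCl2/MnCl2, 2% DMSO, inhibitor 0.005-10 μM.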

Another assay concerns the target CDK1/cyclin B (Homo sapiens (Human), UniProt P06493). As to the kind of experiment: CDK1/Cyclin B enzymatic activity assay (IMAP-FP). From the text: A 384-well microtiter IMAP-FPT™ (Molecular Devices Trade Mark Technology) endpoint assay was used for CDK1/cyclin B kinase activity measurements. The same assay was used for IC50 determination of small molecule inhibitors.

In another assay the target is CDK2/cyclin A (Homo sapiens (Human), UniProt P24941). As to the kind of experiment: CDK2/Cyclin A enzymatic activity assay (IMAP-FP).
Setting [1] is: Table 2, 3 μM ATP, read-out: CDK4.
The mark [2] stands for this setting: Table 2, 20 μM ATP, read-out: CDK1.

Sequence of CDK4/cyclin D1 (P11802 whole entry): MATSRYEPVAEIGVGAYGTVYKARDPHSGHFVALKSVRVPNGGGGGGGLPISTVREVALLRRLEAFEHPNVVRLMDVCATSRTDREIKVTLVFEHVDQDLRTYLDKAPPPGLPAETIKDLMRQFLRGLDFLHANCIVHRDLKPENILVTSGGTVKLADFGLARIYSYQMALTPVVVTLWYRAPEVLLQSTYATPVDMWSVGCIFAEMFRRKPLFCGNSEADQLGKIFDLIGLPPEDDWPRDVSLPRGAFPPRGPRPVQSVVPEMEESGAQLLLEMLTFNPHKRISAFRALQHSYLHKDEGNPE
Sequence of CDK4/cyclin D1 (P24385 whole entry partner): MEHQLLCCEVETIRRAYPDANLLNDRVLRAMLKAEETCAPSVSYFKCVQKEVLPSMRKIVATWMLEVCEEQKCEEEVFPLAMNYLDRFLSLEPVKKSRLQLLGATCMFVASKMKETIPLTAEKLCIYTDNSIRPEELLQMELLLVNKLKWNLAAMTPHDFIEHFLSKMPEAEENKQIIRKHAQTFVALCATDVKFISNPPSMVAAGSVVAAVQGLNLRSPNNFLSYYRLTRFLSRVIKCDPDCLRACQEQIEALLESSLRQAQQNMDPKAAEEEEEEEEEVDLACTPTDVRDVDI
Sequence of CDK1/cyclin B (P06493 whole entry, species assumed): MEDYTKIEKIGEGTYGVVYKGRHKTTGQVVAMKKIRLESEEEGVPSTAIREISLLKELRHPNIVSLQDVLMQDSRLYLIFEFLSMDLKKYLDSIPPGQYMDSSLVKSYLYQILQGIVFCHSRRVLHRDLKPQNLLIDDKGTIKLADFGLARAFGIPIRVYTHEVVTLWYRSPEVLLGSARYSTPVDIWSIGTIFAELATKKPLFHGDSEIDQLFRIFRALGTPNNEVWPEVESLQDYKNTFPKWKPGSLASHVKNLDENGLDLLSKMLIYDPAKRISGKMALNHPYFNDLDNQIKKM
Sequence of CDK1/cyclin B (P14635 whole entry partner, species assumed): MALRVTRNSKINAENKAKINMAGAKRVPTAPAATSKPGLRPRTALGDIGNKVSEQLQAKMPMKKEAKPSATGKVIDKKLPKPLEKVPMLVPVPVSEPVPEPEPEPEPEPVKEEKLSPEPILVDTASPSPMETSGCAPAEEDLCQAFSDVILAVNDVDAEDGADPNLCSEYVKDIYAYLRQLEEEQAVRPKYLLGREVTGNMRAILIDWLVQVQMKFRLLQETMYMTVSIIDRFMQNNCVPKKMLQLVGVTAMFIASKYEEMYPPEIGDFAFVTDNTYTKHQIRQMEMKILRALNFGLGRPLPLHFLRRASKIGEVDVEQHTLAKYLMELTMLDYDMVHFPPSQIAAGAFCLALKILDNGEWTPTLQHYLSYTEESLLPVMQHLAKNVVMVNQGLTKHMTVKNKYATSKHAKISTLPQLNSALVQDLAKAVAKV

As to `CN(C)C(=O)c1cc2cnc(Nc3ccc(N4CCC(N(C)C)CC4)cn3)nc2n1C1CCCC1` [Example 6, 7-Cyclopentyl-2-(4-dimethylamino-3,4,5,6-tetrahydro-2-[1,3′]bipyridinyl-6′-ylamino)-7H-pyrrolo[2,3-d]pyrimidine-6-carboxylic acid dimethylamide], the IC50 was 0.001 to 0.01 µM on CDK4/cyclin D1 (setting [1]); greater than 15 µM at CDK1/cyclin B (setting [2]); greater than 15 µM on CDK2/cyclin A (Table 2, read-out: CDK2).
On to `CC(C)N1CCN(Cc2ccc(Nc3ncc4cc(C(=O)N(C)C)n(C5CCCC5)c4n3)nc2)CC1` [Example 62, 7-Cyclopentyl-2-[5-(4-isopropyl-piperazin-1-ylmethyl)-pyridin-2-ylamino]-7H-pyrrolo[2,3-d]pyrimidine-6-carboxylic acid dimethylamide], for which the IC50 was 0.01 to 0.1 µM on CDK4/cyclin D1 (setting [1]); greater than 15 µM on CDK1/cyclin B (setting [2]); greater than 15 µM at CDK2/cyclin A (Table 2, read-out: CDK2).
In the case of `CN(C)C(=O)c1cc2cnc(Nc3ccc(N4CCOCC4)cn3)nc2n1C1CCCC1` [Example 110, 7-Cyclopentyl-2-(5-morpholin-4-yl-pyridin-2-ylamino)-7H-pyrrolo[2,3-d]pyrimidine-6-carboxylic acid dimethylamide], the IC50 on CDK4/cyclin D1 (setting [1]) is 0.1 to 1 µM; at CDK1/cyclin B (setting [2]), greater than 15 µM; at CDK2/cyclin A (Table 2, read-out: CDK2), greater than 15 µM.
For the compound `CC(C)OCCN1CCN(c2ccc(Nc3ncc4cc(C(=O)N(C)C)n(C5CCCC5)c4n3)nc2)CC1` [Example 95, 7-Cyclopentyl-2-{5-[4-(2-isopropoxy-ethyl)-piperazin-1-yl]-pyridin-2-ylamino}-7H-pyrrolo[2,3-d]pyrimidine-6-carboxylic acid dimethylamide], the IC50 is 0.01 to 0.1 µM on CDK4/cyclin D1 (setting [1]); greater than 15 µM on CDK1/cyclin B (setting [2]); greater than 15 µM at CDK2/cyclin A (Table 2, read-out: CDK2).
For `CC(=O)N1CCN(Cc2ccc(Nc3ncc4cc(C(=O)N(C)C)n(C5CCCC5)c4n3)nc2)CC1` [Example 61, 2-[5-(4-Acetyl-piperazin-1-ylmethyl)-pyridin-2-ylamino]-7-cyclopentyl-7H-pyrrolo[2,3-d]pyrimidine-6-carboxylic acid dimethylamide], the IC50 on CDK4/cyclin D1 (setting [1]) is 0.1 to 1 µM; on CDK1/cyclin B (setting [2]), greater than 15 µM; at CDK2/cyclin A (Table 2, read-out: CDK2), greater than 15 µM.
As to `COC(=O)C(C)N1CCN(c2ccc(Nc3ncc4cc(C(=O)N(C)C)n(C5CCCC5)c4n3)nc2)CC1` (stereo not drawn) [Example 101, 2-{4-[6-(7-Cyclopentyl-6-dimethylcarbamoyl-7H-pyrrolo[2,3-d]pyrimidin-2-ylamino)-pyridin-3-yl]-piperazin-1-yl}-propionic acid methyl ester], the IC50 is 0.1 to 1 µM on CDK4/cyclin D1 (setting [1]); greater than 15 µM at CDK1/cyclin B (setting [2]); greater than 15 µM at CDK2/cyclin A (Table 2, read-out: CDK2).
In the case of `C[C@@H]1CN(c2ccc(Nc3ncc4cc(C(=O)N(C)C)n(C5CCCC5)c4n3)nc2)CCN1C(=O)OC(C)(C)C` [Example 30, (R)-4-[6-(7-Cyclopentyl-6-dimethylcarbamoyl-7H-pyrrolo[2,3-d]pyrimidin-2-ylamino)-pyridin-3-yl]-2-methyl-piperazine-1-carboxylic acid tert-butyl ester], the IC50 is 0.1 to 1 µM at CDK4/cyclin D1 (setting [1]); greater than 15 µM on CDK1/cyclin B (setting [2]); greater than 15 µM on CDK2/cyclin A (Table 2, read-out: CDK2).
In the case of `CN(C)C(=O)c1cc2cnc(Nc3ccc(C(=O)NC4CCNCC4)cn3)nc2n1C1CCCC1` [Example 3, 7-Cyclopentyl-2-[5-(piperidin-4-ylcarbamoyl)-pyridin-2-ylamino]-7H-pyrrolo[2,3-d]pyrimidine-6-carboxylic acid dimethylamide], the IC50 on CDK4/cyclin D1 (setting [1]) was 0.01 to 0.1 µM; at CDK1/cyclin B (setting [2]), greater than 15 µM; at CDK2/cyclin A (Table 2, read-out: CDK2) it was greater than 15 µM.
As for `CN(C)C(=O)c1cc2cnc(Nc3ccc(N4CC(O)C4)cn3)nc2n1C1CCCC1` [Example 32, 7-Cyclopentyl-2-[5-(3-hydroxy-azetidin-1-yl)-pyridin-2-ylamino]-7H-pyrrolo[2,3-d]pyrimidine-6-carboxylic acid dimethylamide], the IC50 was 0.01 to 0.1 µM on CDK4/cyclin D1 (setting [1]); greater than 15 µM on CDK1/cyclin B (setting [2]); greater than 15 µM at CDK2/cyclin A (Table 2, read-out: CDK2).
Regarding `CN(C)C(=O)c1cc2cnc(Nc3ccc(CN4CC(O)C4)cn3)nc2n1C1CCCC1` [Example 10A, 7-Cyclopentyl-2-[5-(3-hydroxy-azetidin-1-ylmethyl)-pyridin-2-ylamino]-7H-pyrrolo[2,3-d]pyrimidine-6-carboxylic acid dimethylamide], the IC50 on CDK4/cyclin D1 (setting [1]) was 0.01 to 0.1 µM; on CDK1/cyclin B (setting [2]) it was 12 µM; on CDK2/cyclin A (Table 2, read-out: CDK2) it was 14 µM.
As for `CN(C)C(=O)c1cc2cnc(Nc3ccc(N4CCN(C(=O)CN)CC4)cn3)nc2n1C1CCCC1` [Example 12, 2-{5-[4-(2-Amino-acetyl)-piperazin-1-yl]-pyridin-2-ylamino}-7-cyclopentyl-7H-pyrrolo[2,3-d]pyrimidine-6-carboxylic acid dimethylamide], the IC50 at CDK4/cyclin D1 (setting [1]) is 0.01 to 0.1 µM; at CDK1/cyclin B (setting [2]) it was greater than 15 µM; on CDK2/cyclin A (Table 2, read-out: CDK2), greater than 15 µM.
With `CN(C)C(=O)c1cc2cnc(Nc3ccc(N4CCNC(=O)C4)cn3)nc2n1C1CCCC1` [Example 4, 7-Cyclopentyl-2-[5-(3-oxo-piperazin-1-yl)-pyridin-2-ylamino]-7H-pyrrolo[2,3-d]pyrimidine-6-carboxylic acid dimethylamide], the IC50 is 0.01 to 0.1 µM at CDK4/cyclin D1 (setting [1]); greater than 15 µM at CDK1/cyclin B (setting [2]); greater than 15 µM on CDK2/cyclin A (Table 2, read-out: CDK2).
On to `c1ncc(-c2cc3cnc(Nc4ccc(CN5CCNCC5)cn4)nc3n2C2CCCC2)o1` [Example 18, (7-Cyclopentyl-6-oxazol-5-yl-7H-pyrrolo[2,3-d]pyrimidin-2-yl)-(5-piperazin-1-ylmethyl-pyridin-2-yl)-amine], for which the IC50 is 0.001 to 0.01 µM at CDK4/cyclin D1 (setting [1]); 1.1 µM at CDK1/cyclin B (setting [2]); 2.8 µM at CDK2/cyclin A (Table 2, read-out: CDK2).
For the compound `O=C(c1cc2cnc(Nc3ccc(N4CCNCC4)cc3)nc2n1C1CCCC1)N1CCC1` [Example 201, reference compound], the IC50 stood at 0.11 µM at CDK4/cyclin D1 (Table 4, read-out: IC50 (μM) CDK4); 7.5 µM on CDK1/cyclin B (Table 4, read-out: IC50 (μM) CDK1); 10.3 µM at CDK2/cyclin A (Table 4, read-out: IC50 (μM) CDK2).
Take `C[C@@H]1CN(c2ccc(Nc3ncc4cc(C(=O)N(C)C)n(C5CCCC5)c4n3)nc2)CCN1` [Example 16, 7-Cyclopentyl-2-[5-((R)-3-methyl-piperazin-1-yl)-pyridin-2-ylamino]-7H-pyrrolo[2,3-d]pyrimidine-6-carboxylic acid dimethylamide]: the IC50 on CDK4/cyclin D1 (setting [1]) is 0.001 to 0.01 µM; on CDK1/cyclin B (setting [2]), greater than 15 µM; at CDK2/cyclin A (Table 2, read-out: CDK2) it was greater than 15 µM.
On to `CN(C)C(=O)c1cc2cnc(Nc3ccc(N4CCNC(C)(C)C4)cn3)nc2n1C1CCCC1` [Example 72, 7-Cyclopentyl-2-[5-(3,3-dimethyl-piperazin-1-yl)-pyridin-2-ylamino]-7H-pyrrolo[2,3-d]pyrimidine-6-carboxylic acid dimethylamide], for which the IC50 at CDK4/cyclin D1 (setting [1]) was 0.01 to 0.1 µM; at CDK1/cyclin B (setting [2]), greater than 15 µM; at CDK2/cyclin A (Table 2, read-out: CDK2) it was greater than 15 µM.
Consider `CN(C)C(=O)c1cc2cnc(Nc3ccc(N(C)CCN)cn3)nc2n1C1CCCC1` [Example 59, 2-{5-[(2-Amino-ethyl)-methyl-amino]-pyridin-2-ylamino}-7-cyclopentyl-7H-pyrrolo[2,3-d]pyrimidine-6-carboxylic acid dimethylamide], for which the IC50 was 0.01 to 0.1 µM on CDK4/cyclin D1 (setting [1]); greater than 15 µM at CDK1/cyclin B (setting [2]); greater than 15 µM on CDK2/cyclin A (Table 2, read-out: CDK2).
As for `CN(C)C(=O)c1cc2cnc(Nc3ccc(N4CCN(C(=O)CC5CCCCC5)CC4)cn3)nc2n1C1CCCC1` [Example 90, 2-{5-[4-(2-Cyclohexyl-acetyl)-piperazin-1-yl]-7H-pyridin-2-ylamino}-7-cyclopentyl-7H-pyrrolo[2,3-d]pyrimidine-6-carboxylic acid dimethylamide], the IC50 is 0.01 to 0.1 µM at CDK4/cyclin D1 (setting [1]); greater than 15 µM at CDK1/cyclin B (setting [2]); greater than 15 µM at CDK2/cyclin A (Table 2, read-out: CDK2).
On to `C[C@H]1CN(c2ccc(Nc3ncc4cc(C(=O)N(C)C)n(C5CCCC5)c4n3)nc2)CCN1` [Example 17, 7-Cyclopentyl-2-[5-((S)-3-methyl-piperazin-1-yl)-pyridin-2-ylamino]-7H-pyrrolo[2,3-d]pyrimidine-6-carboxylic acid dimethylamide], for which the IC50 on CDK4/cyclin D1 (setting [1]) is 0.01 to 0.1 µM; on CDK1/cyclin B (setting [2]), greater than 15 µM; on CDK2/cyclin A (Table 2, read-out: CDK2), greater than 15 µM.
For the compound `CN(C)C(=O)c1cc2cnc(Nc3ccc(N4CCC(N)C4)cn3)nc2n1C1CCCC1` (racemic) [Example 13, Rac-2-[5-(3-Amino-pyrrolidin-1-yl)-pyridin-2-ylamino]-7-cyclopentyl-7H-pyrrolo[2,3-d]pyrimidine-6-carboxylic acid dimethylamide], the IC50 on CDK4/cyclin D1 (setting [1]) is 0.01 to 0.1 µM; at CDK1/cyclin B (setting [2]) it was greater than 15 µM; at CDK2/cyclin A (Table 2, read-out: CDK2) it was greater than 15 µM.
For `CN(C)C(=O)c1cc2cnc(Nc3ccc(N4CCN(CC5CCCCC5)CC4)cn3)nc2n1C1CCCC1` [Example 69, 2-[5-(4-Cyclohexylmethyl-piperazin-1-yl)-pyridin-2-ylamino]-7-cyclopentyl-7H-pyrrolo[2,3-d]pyrimidine-6-carboxylic acid dimethylamide], the IC50 on CDK4/cyclin D1 (setting [1]) was 0.01 to 0.1 µM; at CDK1/cyclin B (setting [2]) it was greater than 15 µM; at CDK2/cyclin A (Table 2, read-out: CDK2) it was greater than 15 µM.
As for `CC(=O)N1CCN(c2ccc(Nc3ncc4cc(C(=O)N(C)C)n(C5CCCC5)c4n3)nc2)CC1` [Example 7, 2-[5-(4-Acetylpiperazin-1-yl)-pyridin-2-ylamino]-7-cyclopentyl-7H-pyrrolo[2,3-d]pyrimidine-6-carboxylic acid dimethylamide], the IC50 on CDK4/cyclin D1 (setting [1]) was 0.01 to 0.1 µM; at CDK1/cyclin B (setting [2]), greater than 15 µM; at CDK2/cyclin A (Table 2, read-out: CDK2) it was greater than 15 µM.
With `CC1CN(c2ccc(Nc3ncc4cc(C(=O)N(C)C)n(C5CCCC5)c4n3)nc2)CCN1` (stereo not drawn) [Example 19, 7-Cyclopentyl-2-[5-(3-methyl-piperazin-1-yl)-pyridin-2-ylamino]-7H-pyrrolo[2,3-d]pyrimidine-6-carboxylic acid dimethylamide], the IC50 at CDK4/cyclin D1 (setting [1]) was 0.001 to 0.01 µM; on CDK1/cyclin B (setting [2]) it was greater than 15 µM; at CDK2/cyclin A (Table 2, read-out: CDK2), greater than 15 µM.
